Experimental data from PubChem BioAssay AID2060330 (Molecular Pharmacology Branch, DTP, NCI, 2025).

Test system: LG0703-F948-PDC spheroids with HUVEC/MSC, viability
Test: Anticancer human tumor LG0703-F948-PDC patient-derived lung adenocarcinoma cell line growth inhibition [IpAb]
Settings: for IC50: curve of first compound; for viability, T/C: stronger effect = lower value
In short: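 Multi-cell spheroids of 60% tumour cells, 25% HUVEC and 15% MSC in ultra-low-attachment U-bottom wells, treated with agents combined with ipatasertib or abemaciclib. Half-log ranges top out near clinical Cmax, or 10 microM when Cmax is unknown.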

[1] = second compound 0.01 µM, first compound 0.0316 µM
[2] = second compound 0.01 µM, first compound 0.1 µM
[3] = second compound 0.0316 µM, first compound 0.0316 µM
[4] = second compound 0.0316 µM, first compound 0.1 µM
[5] = second compound 0.1 µM, first compound 0.0316 µM
[6] = second compound 0.1 µM, first compound 0.1 µM
[7] = second compound 0.316 µM, first compound 0.0316 µM
[8] = second compound 0.316 µM, first compound 0.1 µM
[9] = second compound 1 µM, first compound 0.0316 µM
[10] = second compound 1 µM, first compound 0.1 µM
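Note: spheroids exposed to compounds for seven days before readout.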
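Throughout, for viability, T/C: T/C percent relative to DMSO vehicle wells set as 100% viability.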

Cn1ncc(Cl)c1-c1cc(C(=O)NC(CN)Cc2cccc(F)c2)sc1Cl (stereo not given) + CCN1CCN(Cc2ccc(Nc3ncc(F)c(-c4cc(F)c5nc(C)n(C(C)C)c5c4)n3)nc2)CC1
IC50 (second compound 0.01 µM): 643 nM | IC50 (second compound 0.0316 µM): 401 nM | IC50 (second compound 0.1 µM): 372 nM | IC50 (second compound 0.316 µM): 349 nM | IC50 (second compound 1 µM): 278 nM | viability, T/C [1]: 88% | viability, T/C [2]: 67.6% | viability, T/C (second compound 0.01 µM, first compound 0.316 µM): 59.3% | viability, T/C (second compound 0.01 µM, first compound 1 µM): 49.3% | viability, T/C (second compound 0.01 µM, first compound 3.16 µM): 21.5% | viability, T/C (second compound 0.01 µM, first compound 10 µM): 0.13% | viability, T/C [3]: 86.1% | viability, T/C [4]: 63.7% | viability, T/C (second compound 0.0316 µM, first compound 0.316 µM): 51.3% | viability, T/C (second compound 0.0316 µM, first compound 1 µM): 45.9% | viability, T/C (second compound 0.0316 µM, first compound 3.16 µM): 13.3% | viability, T/C (second compound 0.0316 µM, first compound 10 µM): 0.13% | viability, T/C [5]: 86.3% | viability, T/C [6]: 68.8% | viability, T/C (second compound 0.1 µM, first compound 0.316 µM): 44.4% | viability, T/C (second compound 0.1 µM, first compound 1 µM): 46.4% | viability, T/C (second compound 0.1 µM, first compound 3.16 µM): 13.5% | viability, T/C (second compound 0.1 µM, first compound 10 µM): 0.13% | viability, T/C [7]: 86.1% | viability, T/C [8]: 70% | viability, T/C (second compound 0.316 µM, first compound 0.316 µM): 41.9% | viability, T/C (second compound 0.316 µM, first compound 1 µM): 48.7% | viability, T/C (second compound 0.316 µM, first compound 3.16 µM): 7.04% | viability, T/C (second compound 0.316 µM, first compound 10 µM): 0.12% | viability, T/C [9]: 77.9% | viability, T/C [10]: 71.5% | viability, T/C (second compound 1 µM, first compound 0.316 µM): 37.4% | viability, T/C (second compound 1 µM, first compound 1 µM): 40.1% | viability, T/C (second compound 1 µM, first compound 3.16 µM): 1.07% | viability, T/C (second compound 1 µM, first compound 10 µM): 0.17%

Cn1ncnc1[C@H]1c2n[nH]c(=O)c3cc(F)cc(c23)N[C@@H]1c1ccc(F)cc1 + CCN1CCN(Cc2ccc(Nc3ncc(F)c(-c4cc(F)c5nc(C)n(C(C)C)c5c4)n3)nc2)CC1
IC50 (second compound 0.01 µM): > 100 nM | IC50 (second compound 0.0316 µM): > 100 nM | IC50 (second compound 0.1 µM): > 100 nM | IC50 (second compound 0.316 µM): > 100 nM | IC50 (second compound 1 µM): > 100 nM | viability, T/C (second compound 0.01 µM, first compound 0.000316 µM): 104% | viability, T/C (second compound 0.01 µM, first compound 0.001 µM): 98% | viability, T/C (second compound 0.01 µM, first compound 0.00316 µM): 99.2% | viability, T/C (second compound 0.01 µM, first compound 0.01 µM): 97.3% | viability, T/C [1]: 91.2% | viability, T/C [2]: 88.8% | viability, T/C (second compound 0.0316 µM, first compound 0.000316 µM): 94% | viability, T/C (second compound 0.0316 µM, first compound 0.001 µM): 91.4% | viability, T/C (second compound 0.0316 µM, first compound 0.00316 µM): 79.9% | viability, T/C (second compound 0.0316 µM, first compound 0.01 µM): 86.1% | viability, T/C [3]: 92.6% | viability, T/C [4]: 83.4% | viability, T/C (second compound 0.1 µM, first compound 0.000316 µM): 79.5% | viability, T/C (second compound 0.1 µM, first compound 0.001 µM): 88.8% | viability, T/C (second compound 0.1 µM, first compound 0.00316 µM): 73% | viability, T/C (second compound 0.1 µM, first compound 0.01 µM): 75.2% | viability, T/C [5]: 74.4% | viability, T/C [6]: 84.3% | viability, T/C (second compound 0.316 µM, first compound 0.000316 µM): 85.6% | viability, T/C (second compound 0.316 µM, first compound 0.001 µM): 80.6% | viability, T/C (second compound 0.316 µM, first compound 0.00316 µM): 67.7% | viability, T/C (second compound 0.316 µM, first compound 0.01 µM): 86.8% | viability, T/C [7]: 84.1% | viability, T/C [8]: 76.7% | viability, T/C (second compound 1 µM, first compound 0.000316 µM): 82.2% | viability, T/C (second compound 1 µM, first compound 0.001 µM): 72.7% | viability, T/C (second compound 1 µM, first compound 0.00316 µM): 43.4% | viability, T/C (second compound 1 µM, first compound 0.01 µM): 68.9% | viability, T/C [9]: 74.4% | viability, T/C [10]: 80.2%
